Assay results reported in ChEMBL document CHEMBL3774360, “Potent multitarget FAAH-COX inhibitors: Design and structure-activity relationship studies” (Eur J Med Chem, 2016).
The source made the active and inactive calls. No cut-off for these calls is given here.

Legend:
[1] = biological target: Leukotriene B4 receptor (Homo sapiens) (UniProt Q9NPC1+Q15722); assay: Binding affinity to human leukotriene B4 receptor at 10 uM by radioligand binding assay; format: protein assay
[2] = biological target: Substance-P receptor (Homo sapiens) (UniProt P25103); assay: Binding affinity to human NK1 receptor at 10 uM by radioligand binding assay
Homo sapiens [3] = organism: Homo sapiens; assay: Binding affinity to GABA-gated chloride channel (unknown origin) at 10 uM by radioligand binding assay
[4] = biological target: Glutamate [NMDA] receptor (Homo sapiens) (UniProt Q05586+Q12879+Q13224+O15399+O60391+Q14957+Q8TCU5); assay: Binding affinity to NMDA receptor (unknown origin) at 10 uM by radioligand binding assay
Mus musculus = assay: In-vivo inhibition of COX in mouse plasma assessed as decrease in TXA2 level at 1 mg/kg, iv after 1 hr by LC-MS/MS analysis; format: functional, organism-based
Homo sapiens [5] = organism: Homo sapiens; assay: Binding affinity to small conductance calcium-activated potassium channel (unknown origin) at 10 uM by radioligand binding assay
[6] = biological target: Endothelin receptor type B (Homo sapiens) (UniProt P24530); assay: Binding affinity to human ETB receptor at 10 uM by radioligand binding assay
[7] = biological target: Tyrosine-protein phosphatase non-receptor type 1 (Homo sapiens) (UniProt P18031); assay: Binding affinity to PTPN1 (unknown origin) at 10 uM
[8] = biological target: Peroxisome proliferator-activated receptor gamma (Homo sapiens) (UniProt P37231); assay: Binding affinity to human PPAR-gamma receptor at 10 uM by radioligand binding assay
[9] = biological target: Type-2 angiotensin II receptor (Homo sapiens) (UniProt P50052); assay: Binding affinity to human angiotensin receptor 2 at 10 uM by radioligand binding assay
[10] = biological target: Neuromedin-K receptor (Homo sapiens) (UniProt P29371); assay: Binding affinity to human neurokinin 3 receptor at 10 uM by radioligand binding assay
[11] = biological target: Adrenergic receptor alpha-2 (Homo sapiens) (UniProt P08913+P18825+P18089); assay: Binding affinity to alpha-2 adrenergic receptor (unknown origin) at 10 uM by radioligand binding assay
[12] = biological target: D(3) dopamine receptor (Homo sapiens) (UniProt P35462); assay: Binding affinity to human dopamine D3 receptor at 10 uM by radioligand binding assay
[13] = biological target: Sodium-dependent serotonin transporter (Homo sapiens) (UniProt P31645); assay: Binding affinity to human 5-HT transporter at 10 uM by radioligand binding assay
[14] = biological target: 4-aminobutyrate aminotransferase, mitochondrial (Homo sapiens) (UniProt P80404); assay: Binding affinity to GABA transaminase (unknown origin) at 10 uM
Homo sapiens [15] = organism: Homo sapiens; assay: Binding affinity to kainate receptor (unknown origin) at 10 uM by radioligand binding assay
[16] = biological target: M-phase inducer phosphatase 1 (Homo sapiens) (UniProt P30304); assay: Binding affinity to CDC25A (unknown origin) at 10 uM
[17] = biological target: Transmembrane domain-containing protein TMIGD3 (Homo sapiens) (UniProt P0DMS9); assay: Binding affinity to human adenosine A3 receptor at 10 uM by radioligand binding assay
[18] = biological target: Catechol O-methyltransferase (Homo sapiens) (UniProt P21964); assay: Binding affinity to COMT (unknown origin) at 10 uM
Homo sapiens [19] = organism: Homo sapiens; assay: Binding affinity to ATP-sensitive potassium channel (unknown origin) at 10 uM by radioligand binding assay
[20] = biological target: Polyunsaturated fatty acid 5-lipoxygenase (Homo sapiens) (UniProt P09917); assay: Binding affinity to human 5-lipoxygenase at 10 uM
[21] = biological target: High affinity choline transporter 1 (Homo sapiens) (UniProt Q9GZV3); assay: Binding affinity to human CHT1 transporter at 10 uM by radioligand binding assay
[22] = biological target: Cannabinoid receptor 2 (Homo sapiens) (UniProt P34972); assay: Binding affinity to human cannabinoid receptor 2 at 10 uM by radioligand binding assay
[23] = biological target: Prostaglandin E2 receptor EP2 subtype (Homo sapiens) (UniProt P43116); assay: Binding affinity to human EP2 receptor at 10 uM by radioligand binding assay
[24] = biological target: D(1A) dopamine receptor (Homo sapiens) (UniProt P21728); assay: Binding affinity to human dopamine D1 receptor at 10 uM by radioligand binding assay
[25] = biological target: Endothelin-1 receptor (Homo sapiens) (UniProt P25101); assay: Binding affinity to human ETA receptor at 10 uM by radioligand binding assay
[26] = biological target: Proteinase-activated receptor 2 (Homo sapiens) (UniProt P55085); assay: Binding affinity to human PAR2 receptor at 10 uM by radioligand binding assay
[27] = biological target: Sodium-dependent noradrenaline transporter (Homo sapiens) (UniProt P23975); assay: Binding affinity to human norepinephrine transporter at 10 uM by radioligand binding assay
[28] = biological target: NAD-dependent protein deacetylase sirtuin-2 (Homo sapiens) (UniProt Q8IXJ6); assay: Inhibition of human sirtuin 2 at 10 uM; set-up: scale not given: the % may be the effect or the level left
[29] = biological target: B2 bradykinin receptor (Homo sapiens) (UniProt P30411); assay: Binding affinity to human bradykinin 2 receptor at 10 uM by radioligand binding assay
Homo sapiens [30] = organism: Homo sapiens; assay: Binding affinity to P2Y receptor (unknown origin) at 10 uM by radioligand binding assay
[31] = biological target: Dual specificity calcium/calmodulin-dependent 3',5'-cyclic nucleotide phosphodiesterase 1B (Homo sapiens) (UniProt Q01064); assay: Binding affinity to human PDE1B at 10 uM
[32] = biological target: Thromboxane A2 receptor (Homo sapiens) (UniProt P21731); assay: Antagonist activity against human TP receptor at 10 uM; set-up: scale not given: the % may be the effect or the level left
[33] = biological target: Adrenergic receptor alpha-1 (Homo sapiens) (UniProt P35348+P25100+P35368); assay: Binding affinity to human alpha-1 adrenergic receptor (unknown origin) at 10 uM by radioligand binding assay
[34] = biological target: Sodium/potassium-transporting ATPase (Homo sapiens) (UniProt P05023+P14415+P05026+P50993+P54709+P13637+Q13733+P54710); assay: Binding affinity to sodium/potassium-transporting ATPase (unknown origin) at 10 uM; format: protein-complex assay
[35] = biological target: Adenosine receptor A2a (Homo sapiens) (UniProt P29274); assay: Binding affinity to human adenosine A2A receptor at 10 uM by radioligand binding assay
[36] = biological target: B1 bradykinin receptor (Homo sapiens) (UniProt P46663); assay: Binding affinity to human bradykinin 1 receptor at 10 uM by radioligand binding assay
[37] = biological target: Histamine H3 receptor (Homo sapiens) (UniProt Q9Y5N1); assay: Binding affinity to human histamine H3 receptor at 10 uM by radioligand binding assay
[38] = biological target: Progesterone receptor (Homo sapiens) (UniProt P06401); assay: Binding affinity to human progesterone receptor at 10 uM by radioligand binding assay
[39] = biological target: Neuronal acetylcholine receptor; alpha4/beta2 (Homo sapiens) (UniProt P17787+P43681); assay: Binding affinity to human N neuronal alpha4beta2 receptor at 10 uM by radioligand binding assay; format: protein-complex assay
[40] = biological target: Histone deacetylase 11 (Homo sapiens) (UniProt Q96DB2); assay: Binding affinity to human HDAC11 at 10 uM

Peroxisome proliferator-activated receptor gamma (Homo sapiens), sequence (P37231 whole entry): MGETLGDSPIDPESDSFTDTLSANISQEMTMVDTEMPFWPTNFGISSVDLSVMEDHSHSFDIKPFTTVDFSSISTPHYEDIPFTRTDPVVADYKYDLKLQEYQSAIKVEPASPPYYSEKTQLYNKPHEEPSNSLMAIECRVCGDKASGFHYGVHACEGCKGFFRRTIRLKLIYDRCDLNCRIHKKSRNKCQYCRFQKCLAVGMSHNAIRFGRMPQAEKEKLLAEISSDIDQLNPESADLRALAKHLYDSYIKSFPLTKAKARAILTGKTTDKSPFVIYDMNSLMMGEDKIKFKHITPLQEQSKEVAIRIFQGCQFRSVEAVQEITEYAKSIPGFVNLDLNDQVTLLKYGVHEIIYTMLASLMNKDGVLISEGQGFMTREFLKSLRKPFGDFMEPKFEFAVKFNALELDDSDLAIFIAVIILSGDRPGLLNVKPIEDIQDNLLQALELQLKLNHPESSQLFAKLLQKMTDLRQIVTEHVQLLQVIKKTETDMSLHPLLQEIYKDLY
Substance-P receptor (Homo sapiens), sequence (P25103 whole entry): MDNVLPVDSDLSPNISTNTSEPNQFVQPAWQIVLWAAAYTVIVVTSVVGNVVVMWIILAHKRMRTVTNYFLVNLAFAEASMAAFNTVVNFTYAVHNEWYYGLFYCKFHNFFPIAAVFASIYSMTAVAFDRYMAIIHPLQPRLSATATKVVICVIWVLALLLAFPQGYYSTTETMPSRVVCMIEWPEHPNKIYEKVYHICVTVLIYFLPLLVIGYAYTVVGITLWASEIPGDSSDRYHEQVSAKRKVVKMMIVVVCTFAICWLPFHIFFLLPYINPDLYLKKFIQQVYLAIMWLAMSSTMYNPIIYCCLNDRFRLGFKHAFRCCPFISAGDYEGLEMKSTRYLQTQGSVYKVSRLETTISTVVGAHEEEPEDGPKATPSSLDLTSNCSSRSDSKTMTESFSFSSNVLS
M-phase inducer phosphatase 1 (Homo sapiens), sequence (P30304 whole entry, the tested form may be a part): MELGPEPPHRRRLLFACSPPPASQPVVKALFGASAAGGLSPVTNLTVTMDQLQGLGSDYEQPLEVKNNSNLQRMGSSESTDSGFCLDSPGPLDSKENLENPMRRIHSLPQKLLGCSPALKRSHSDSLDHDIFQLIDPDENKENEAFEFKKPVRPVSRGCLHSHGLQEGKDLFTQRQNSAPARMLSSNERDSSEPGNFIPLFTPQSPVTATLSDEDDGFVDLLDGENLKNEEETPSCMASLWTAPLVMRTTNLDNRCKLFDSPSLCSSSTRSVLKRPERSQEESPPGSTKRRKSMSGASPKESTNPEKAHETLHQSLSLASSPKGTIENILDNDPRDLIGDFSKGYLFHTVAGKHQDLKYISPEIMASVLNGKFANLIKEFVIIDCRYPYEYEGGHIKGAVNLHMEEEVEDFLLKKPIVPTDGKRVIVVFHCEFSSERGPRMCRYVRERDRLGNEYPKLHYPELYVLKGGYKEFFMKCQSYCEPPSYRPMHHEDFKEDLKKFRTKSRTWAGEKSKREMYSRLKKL
4-aminobutyrate aminotransferase, mitochondrial (Homo sapiens), sequence (P80404 whole entry): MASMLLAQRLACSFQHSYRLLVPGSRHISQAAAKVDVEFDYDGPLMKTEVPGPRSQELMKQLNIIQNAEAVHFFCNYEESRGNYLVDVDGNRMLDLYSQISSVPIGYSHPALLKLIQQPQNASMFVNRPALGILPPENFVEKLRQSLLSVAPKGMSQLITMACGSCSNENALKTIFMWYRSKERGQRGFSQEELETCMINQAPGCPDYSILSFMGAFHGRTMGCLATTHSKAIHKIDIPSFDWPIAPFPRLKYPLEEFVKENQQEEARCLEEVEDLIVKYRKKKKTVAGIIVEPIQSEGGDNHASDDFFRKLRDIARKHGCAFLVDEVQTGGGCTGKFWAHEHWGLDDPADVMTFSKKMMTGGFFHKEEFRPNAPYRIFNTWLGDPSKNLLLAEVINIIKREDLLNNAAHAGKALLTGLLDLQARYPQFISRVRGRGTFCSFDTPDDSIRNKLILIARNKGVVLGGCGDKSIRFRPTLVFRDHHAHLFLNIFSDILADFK
Adenosine receptor A2a (Homo sapiens), sequence (P29274 whole entry): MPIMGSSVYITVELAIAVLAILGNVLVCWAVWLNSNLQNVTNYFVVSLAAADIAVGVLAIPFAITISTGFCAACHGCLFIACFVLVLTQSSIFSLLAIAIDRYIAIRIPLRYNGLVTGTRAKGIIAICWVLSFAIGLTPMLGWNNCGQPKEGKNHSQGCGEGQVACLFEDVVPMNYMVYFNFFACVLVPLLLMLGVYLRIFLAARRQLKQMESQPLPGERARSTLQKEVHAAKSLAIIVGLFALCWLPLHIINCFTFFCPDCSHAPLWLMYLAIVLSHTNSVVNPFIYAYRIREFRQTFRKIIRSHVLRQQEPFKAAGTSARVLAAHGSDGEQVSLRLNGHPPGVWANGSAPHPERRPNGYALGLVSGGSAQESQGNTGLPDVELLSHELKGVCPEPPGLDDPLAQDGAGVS
Tyrosine-protein phosphatase non-receptor type 1 (Homo sapiens), sequence (P18031 whole entry): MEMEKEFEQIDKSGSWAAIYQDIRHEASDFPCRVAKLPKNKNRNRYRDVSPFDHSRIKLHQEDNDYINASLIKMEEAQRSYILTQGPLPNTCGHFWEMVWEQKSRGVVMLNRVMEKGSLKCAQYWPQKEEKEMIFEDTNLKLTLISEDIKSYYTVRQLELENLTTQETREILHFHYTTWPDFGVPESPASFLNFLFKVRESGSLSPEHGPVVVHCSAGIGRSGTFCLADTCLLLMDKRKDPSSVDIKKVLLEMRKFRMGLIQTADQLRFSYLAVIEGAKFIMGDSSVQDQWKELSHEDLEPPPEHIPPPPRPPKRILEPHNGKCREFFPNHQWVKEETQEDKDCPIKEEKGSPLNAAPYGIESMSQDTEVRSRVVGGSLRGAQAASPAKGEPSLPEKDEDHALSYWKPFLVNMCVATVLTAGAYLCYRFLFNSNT
Endothelin receptor type B (Homo sapiens), sequence (P24530 whole entry): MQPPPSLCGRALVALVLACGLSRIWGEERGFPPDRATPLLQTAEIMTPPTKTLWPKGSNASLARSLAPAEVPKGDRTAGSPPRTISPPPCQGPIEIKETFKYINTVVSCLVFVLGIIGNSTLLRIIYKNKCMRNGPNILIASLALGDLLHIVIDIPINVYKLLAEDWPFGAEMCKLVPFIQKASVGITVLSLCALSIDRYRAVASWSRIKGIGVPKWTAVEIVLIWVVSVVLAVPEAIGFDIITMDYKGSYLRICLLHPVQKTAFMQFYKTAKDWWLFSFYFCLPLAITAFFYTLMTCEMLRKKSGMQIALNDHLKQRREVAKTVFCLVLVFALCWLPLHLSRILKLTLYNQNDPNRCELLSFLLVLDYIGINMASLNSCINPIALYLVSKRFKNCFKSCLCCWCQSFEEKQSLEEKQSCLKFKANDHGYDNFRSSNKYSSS
Progesterone receptor (Homo sapiens), sequence (P06401 whole entry): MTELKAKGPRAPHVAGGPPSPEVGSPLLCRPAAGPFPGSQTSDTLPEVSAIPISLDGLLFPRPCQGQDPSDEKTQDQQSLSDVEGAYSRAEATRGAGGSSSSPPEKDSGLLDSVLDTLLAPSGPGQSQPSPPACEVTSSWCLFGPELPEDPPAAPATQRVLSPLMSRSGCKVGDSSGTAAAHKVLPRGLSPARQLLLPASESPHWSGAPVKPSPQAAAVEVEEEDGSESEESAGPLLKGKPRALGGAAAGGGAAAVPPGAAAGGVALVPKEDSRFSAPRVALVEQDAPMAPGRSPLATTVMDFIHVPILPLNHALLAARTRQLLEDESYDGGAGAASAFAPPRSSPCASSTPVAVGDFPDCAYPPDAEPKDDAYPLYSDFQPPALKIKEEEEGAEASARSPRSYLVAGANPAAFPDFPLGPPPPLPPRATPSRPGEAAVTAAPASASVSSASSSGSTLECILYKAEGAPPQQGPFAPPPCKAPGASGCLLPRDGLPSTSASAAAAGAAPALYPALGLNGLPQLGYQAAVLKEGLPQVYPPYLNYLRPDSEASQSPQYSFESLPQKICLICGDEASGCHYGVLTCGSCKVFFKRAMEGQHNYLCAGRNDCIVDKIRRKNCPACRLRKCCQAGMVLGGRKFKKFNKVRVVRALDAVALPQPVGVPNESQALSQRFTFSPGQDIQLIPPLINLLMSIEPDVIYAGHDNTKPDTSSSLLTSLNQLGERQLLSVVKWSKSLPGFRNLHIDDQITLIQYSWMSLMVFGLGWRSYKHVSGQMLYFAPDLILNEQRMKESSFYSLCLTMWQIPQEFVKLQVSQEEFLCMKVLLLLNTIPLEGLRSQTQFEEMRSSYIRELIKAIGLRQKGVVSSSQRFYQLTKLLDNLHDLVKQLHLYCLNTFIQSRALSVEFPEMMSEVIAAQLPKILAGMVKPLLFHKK
Sodium-dependent noradrenaline transporter (Homo sapiens), sequence (P23975 whole entry): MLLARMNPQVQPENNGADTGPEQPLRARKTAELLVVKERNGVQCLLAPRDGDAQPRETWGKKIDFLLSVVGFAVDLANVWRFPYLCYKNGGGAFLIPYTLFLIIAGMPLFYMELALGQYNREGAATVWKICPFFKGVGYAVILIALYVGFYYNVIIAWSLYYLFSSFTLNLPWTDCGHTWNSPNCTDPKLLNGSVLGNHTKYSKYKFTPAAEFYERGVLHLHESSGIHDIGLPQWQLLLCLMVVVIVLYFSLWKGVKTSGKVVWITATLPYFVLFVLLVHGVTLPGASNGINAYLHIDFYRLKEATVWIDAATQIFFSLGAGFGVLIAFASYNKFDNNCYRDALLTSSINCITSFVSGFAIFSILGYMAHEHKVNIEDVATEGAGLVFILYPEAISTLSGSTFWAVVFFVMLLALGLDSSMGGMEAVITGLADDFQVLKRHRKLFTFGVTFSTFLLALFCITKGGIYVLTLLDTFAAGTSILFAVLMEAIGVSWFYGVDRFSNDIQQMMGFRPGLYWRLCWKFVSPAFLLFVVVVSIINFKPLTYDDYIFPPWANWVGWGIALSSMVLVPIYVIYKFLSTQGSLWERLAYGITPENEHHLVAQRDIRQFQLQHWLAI

Q: Which results are given for CCCCCCNC(=O)Oc1cccc(-c2ccc([C@H](C)C(=O)O)cc2F)c1?
A: Activity [1]: 1.2%; Activity [2]: -6.3%; Activity (Homo sapiens [3]): 36%; Activity [4]: 3.3%; inhibition (Mus musculus): Active; Activity (Homo sapiens [5]): -10.6%; Activity [6]: -17.5%; Activity [7]: -5.3%; Activity [8]: 80.1%; Activity [9]: 12.4%; Activity [10]: 2.8%; Activity [11]: -13.6%; Activity [12]: 0.7%; Activity [13]: -1.4%; Activity [14]: 7.6%; Activity (Homo sapiens [15]): 17.1%; Activity [16]: -6.3%; Activity [17]: 18.8%; Activity [18]: -4.1%; Activity (Homo sapiens [19]): 10.1%; Activity [20]: 3.8%; Activity [21]: -18.6%; Activity [22]: -3%; Activity [23]: 45%; Activity [24]: -5.6%; Activity [25]: -6.2%; Activity [26]: 3.2%; Activity [27]: 7%; Activity [28]: 1.3%; Activity [29]: -4.3%; Activity (Homo sapiens [30]): 17.7%; Activity [31]: 28.3%; Activity [32]: 2.9%; Activity [33]: -3.8%; Activity [34]: 0.9%; Activity [35]: -7.3%; Activity [36]: -5.1%; Activity [37]: -9.3%; Activity [38]: -9.5%; Activity [39]: -5.6%; Activity [40]: -52%
